Patent US20220016200A1, “PHARMACEUTICAL COMPOSITION FOR THE TREATMENT OF CYSTIC FIBROSIS” (GALENUS G.H. AG, priority 2018, published 2022)
Read-outs that look alike come from different tables or passages of the source. Bridge positions count the residues as written; N and C are the ends. Square brackets hold non-standard residues; d marks the D form. Peptide text beside a SMILES is read from it. * marks the point of attachment. Heptanoyl(5-Me) = CCC(C)CCCC(=O)*; Dab = NCC[C@H](N)C(=O)O

Columns and labels:
[1] = test system: A. nosocomialis 1461911; experiment: Checkerboard fusidic acid (FD) and colistin sulfate (CS), MIC/FIC and MBC/FBC; type: cell-based, Acinetobacter nosocomialis
Method: (§1) Checkerboard assays between fusidic acid (FD) and colistin sulfate (CS) with a bacterial load 5(1-10)*10^5 CFU/ml in cationic adapted Mueller Hinton broth (CAMHB). • a. Antimicrobial stock solutions were prepared using sterile distilled water; • b. CS was added along the ordinate; FD was added along the abscissa to 96 well, flat bottom, polystyrene panels with no treatment. Colistin alone was tested in triplicates; • c. Serial 2-fold dilutions starting with 640 […] CS and 640 μg/ml FD were made; 15 μl volume of the serial dilutions were added for each agent to the appropriate wells—final volume at 30 μl; • d. For each agent tested alone an additional 15 μl media was added to the well. 30 μl were added in control wells where none of the agent was tested. The negative control well contains 150 μl media without any additions; • e. From an overnight bacterial culture in tryptic soy broth, 100 μL was added to 10 mL of fresh tryptic soy broth. This was then incubated at 37° C. for 1.5 hour at 180 rpm; • f. Bacteria in 120 μl CAMHB were added to each well (end concentration 5(1-10)*10^5 CFU/ml); • g. Plates were incubated at 37° C. in an ambient air incubator for 24 h • h. Turbidity at OD600 is determined with a plate photometer • i. By using a one-time inoculator 3 μl from each well of the 96-well plate were transferred to three blood agar plates. The plates were incubated over night at 37° C. in an ambient air incubator; • j. MIC values are defined as lowest concentration which restricts bacterial growth to OD600≤0.1; • k. MBC values were determined by visual reading the lowest concentration which inhibits 99.9% of the growth of bacteria in the wells; • l. Determination of the fractional inhibitory concentration (FIC) index and fractional bactericidal concentration (FBC) index and characterization of antimicrobial interactions was assessed;
(§2) FIC calculation was carried out as: (MIC of drug A, tested in combination)/(MIC of drug A, tested alone)+(MIC of drug B, tested in combination)/(MIC of drug B, tested alone). FBC calculation was carried out just as well;
(§3) Interactive categories were calculated from checkerboard analysis using MIC results from testing each agent alone and MIC results from the combination wells adjacent to the wells with growth in them.
(§4) Determination of the fractional inhibitory concentration (FIC) index and fractional bactericidal concentration (FBC) index and characterization of antimicrobial interactions was assessed:
(§5) (ii) Indifference; FIC/FBC>0.5 to <4.0
(§6) (iii) Antagonism; FIC/FBC≥4.0
b. Acinetobacter nosocomialis 1461911 (IHMA), colistin resistant (3xCS 4/8)

[2] = test system: A. junii 1397597; experiment: as above; type: cell-based, Acinetobacter junii
Method: as §1, §2, §3, §4, §5, §6
a. Acinetobacter junii 1391597 (IHMA), colistin resistant (CS 2/2-2/8)

[3] = test system: A. nosocomialis strain (1204194 IHMA); experiment: Colistin MIC of the susceptible strain used in the mouse model; type: cell-based; settings: Acinetobacter nosocomialis; colistin susceptible A. nosocomialis strain 1204194 IHMA
Method: One colistin susceptible (MIC 1 mg/L) A. nosocomialis strain (1204194 IHMA) and one colistin resistant (MIC 4 mg/L) A. nosocomialis strain (1461911 IHMA) are used. […] Fresh brain heart infusion broth (Merck, Darmstadt, Germany) bacterial cultures, in an aerobic atmosphere in the logarithmic growth phase (4-5 hours) at 37° C., are adjusted to a concentration of 1.0×10^6 colony forming units (CFU)/mL, as verified by both spectrophotometry (OD600 0.01-0.02 nm) and colony counting.

[4] = test system: A. nosocomialis 1461911; experiment: Checkerboard colistin sulphate (CS) plus teicoplanin (TP), MIC/FIC and MBC/FBC; type: cell-based, Acinetobacter nosocomialis
Method: Checkerboard analysis to determine minimal inhibitory concentration (MIC)/fractional inhibitory concentration (FIC) and minimal […] (MBC)/fractional […] (FBC) values of colistin sulphate (CS) plus teicoplanin (TP) for 6 Gram-negative strains with a bacterial load 5(1-10)*10^5 CFU/ml in a cation-adjusted Mueller-Hinton broth (CAMHB). • a. Antimicrobial stock solutions were prepared using sterile distilled water • b. CS was added along the ordinate; TP was added along the abscissa to 96 well, flat bottom, polystyrene panels with no treatment. Colistin alone was tested in triplicates. • c. Serial 2-fold dilutions starting with 640 μg/ml CS and 640 μg/ml TP were made; 15 μl volume of the serial dilutions were added for each agent to the appropriate wells; final volume at 30 μl • d. For each agent tested alone an additional 15 μl media was added to the well. 30 μl were added in control wells where none of the agent was tested. The negative control well contains 150 μl media without any additions • e. From an overnight bacterial culture in tryptic soy broth, 100 μL was added to 10 mL of fresh tryptic soy broth. This was then incubated at 37° C. for 1.5 hour at 180 rpm. • f. Bacteria in 120 μl CAMHB were added to each well (end concentration 5(1-10)*10^5 CFU/ml) • g. Plates were incubated at 37° C. in an ambient air incubator for 24 h • h. Turbidity at OD600 is determined with a plate photometer • i. By using a one-time inoculator 3 μl from each well of the 96-well plate were transferred to three blood agar plates. The plates were incubated over night at 37° C. in an ambient air incubator • j. MIC values are defined as lowest concentration which restricts bacterial growth to OD600 ≤0.1 • k. MBC values were determined by visual reading the lowest concentration which inhibits 99.9% of the growth of bacteria in the wells • l. Determination of the fractional inhibitory concentration (FIC) index and fractional bactericidal concentration (FBC) index and characterization of antimicrobial interactions was assessed […]
FIC calculation was carried out as: (MIC of drug A, tested in combination)/(MIC of drug A, tested alone)+(MIC of drug B, tested in combination)/(MIC of drug B, tested alone). FBC calculation was carried out just as well […]
Interactive categories were calculated from checkerboard analysis using MIC results from testing each agent alone and MIC results from the combination wells adjacent to the wells with growth in them […]
b. Indifference; FIC/FBC>0.5 to<4.0 c. Antagonism; FIC/FBC≥4.0 b. A. nosocomialis 1461911 (IHMA), colistin resistant

Compound: CCC(C)CCCC(=O)N[C@@H](CCN)C(=O)N[C@H](C(=O)N[C@@H](CCN)C(=O)N[C@H]1CCNC(=O)[C@H]([C@@H](C)O)NC(=O)[C@H](CCN)NC(=O)[C@H](CCN)NC(=O)[C@H](CC(C)C)NC(=O)[C@@H](CC(C)C)NC(=O)[C@H](CCN)NC1=O)[C@@H](C)O (stereo partly drawn) [CS, colistin sulphate] ({Heptanoyl(5-Me)}-[Dab]T[Dab][Dab][Dab][dL]L[Dab][Dab]T; lactam 4-C)
- MIC ([1]; A. nosocomialis 1461911, agent alone, CAMHB, 1*10^6 CFU/ml, 24 h): 4 mg/1l
- MBC ([1]; Acinetobacter nosocomialis, A. nosocomialis 1461911, agent alone, CAMHB, 1*10^6 CFU/ml): 8 µg/mL
- MIC ([1]; organism list of Example 3, Acinetobacter nosocomialis 1461911, 3x, read-out: Colistin CS MIC): 4 µg/mL
- MIC ([2]; A. junii 1397597, agent alone, CAMHB, 1*10^6 CFU/ml, 24 h): 2 mg/1l
- MBC ([2]; Acinetobacter junii, 1397597, A. junii 1397597, agent alone, CAMHB, 1*10^6 CFU/ml): 2 µg/mL
- MIC ([2]; Acinetobacter junii, 1397597, organism list of Example 3, repeated determinations, read-out: Colistin CS MIC): 2 µg/mL
- MIC [3]: 1 µg/mL
- MIC ([4]; Acinetobacter nosocomialis, 1461911, colistin resistant A. nosocomialis strain 1461911 IHMA, as stated for the mouse model, read-out: MIC): 4 µg/mL
- MBC ([4]; Acinetobacter nosocomialis, 1461911, A. nosocomialis, agent alone, CAMHB, 5*10^5 CFU/ml, read-out: MBC): 8 µg/mL
